From patent US20250136606A1, “MODULATORS OF TRPML, THEIR COMPOSITIONS AND METHODS OF USE” (Caraway Therapeutics, Inc., priority 2021, published 2025)
pEC50: −log10 of the molar value.

Legend:
Assay type in all cases: cell-based
Details in all cases: fluorescent calcium assay
TRPML1 = TRPML1 (Homo sapiens, UniProt Q9GZU1); experiment: Fluorescent TRPML1 assay (Fluo4-AM calcium fluorescence in doxycycline-induced HEK-293 Trex cells)
Method in brief: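 HEK-293 Trex cells stably expressing surface-directed mutant human TRPML1, induced with 0.5 µg/mL doxycycline overnight, were loaded with 1 µM Fluo4-AM and added to compound (6 nM–20 µM final, half-log steps, triplicate) in Ringer's with 10 mM calcium. Fluorescence ex 480/em 540; EC50 by non-linear regression versus plate controls.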

TRPML2 = target: T1, TRPML2 (Homo sapiens, UniProt Q8IZK6); experiment: Fluorescent TRPML2 assay (performed as for TRPML1, substituting the TRPML2 subtype)
T1 construct: expressed in transfected cells
T1 sequence (Q8IZK6 1-566): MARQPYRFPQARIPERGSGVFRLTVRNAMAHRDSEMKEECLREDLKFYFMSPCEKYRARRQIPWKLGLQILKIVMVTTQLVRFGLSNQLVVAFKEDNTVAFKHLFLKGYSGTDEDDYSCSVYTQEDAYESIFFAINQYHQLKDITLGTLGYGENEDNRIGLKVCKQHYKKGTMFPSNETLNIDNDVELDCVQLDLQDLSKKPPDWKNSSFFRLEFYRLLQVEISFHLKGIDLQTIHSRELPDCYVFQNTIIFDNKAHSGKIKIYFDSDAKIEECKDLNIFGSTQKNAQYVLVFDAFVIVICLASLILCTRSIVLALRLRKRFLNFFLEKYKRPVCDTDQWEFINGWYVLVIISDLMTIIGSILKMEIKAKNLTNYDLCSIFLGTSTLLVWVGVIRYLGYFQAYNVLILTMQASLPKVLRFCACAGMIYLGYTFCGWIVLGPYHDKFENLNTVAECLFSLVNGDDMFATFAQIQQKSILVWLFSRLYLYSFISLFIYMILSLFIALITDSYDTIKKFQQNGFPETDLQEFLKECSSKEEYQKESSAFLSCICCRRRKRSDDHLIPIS
Method in brief: (§1)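 Doxycycline-induced (0.5 ug/mL) HEK-293 Trex cells stably expressing surface-directed mutant channel were loaded with 1 micromolar Fluo4-AM, resuspended in Ringer's with 10 mM calcium and added to compound plates. Fluorescence (ex 480, em 540 nm) gave percent activity versus on-plate controls; EC50 by non-linear regression.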

TRPML3 = target: T2, TRPML3 (Homo sapiens, UniProt Q8TDD5); experiment: Fluorescent TRPML3 assay (performed as for TRPML1, substituting the TRPML3 subtype)
T2 construct: expressed in transfected cells
T2 sequence (Q8TDD5 1-553): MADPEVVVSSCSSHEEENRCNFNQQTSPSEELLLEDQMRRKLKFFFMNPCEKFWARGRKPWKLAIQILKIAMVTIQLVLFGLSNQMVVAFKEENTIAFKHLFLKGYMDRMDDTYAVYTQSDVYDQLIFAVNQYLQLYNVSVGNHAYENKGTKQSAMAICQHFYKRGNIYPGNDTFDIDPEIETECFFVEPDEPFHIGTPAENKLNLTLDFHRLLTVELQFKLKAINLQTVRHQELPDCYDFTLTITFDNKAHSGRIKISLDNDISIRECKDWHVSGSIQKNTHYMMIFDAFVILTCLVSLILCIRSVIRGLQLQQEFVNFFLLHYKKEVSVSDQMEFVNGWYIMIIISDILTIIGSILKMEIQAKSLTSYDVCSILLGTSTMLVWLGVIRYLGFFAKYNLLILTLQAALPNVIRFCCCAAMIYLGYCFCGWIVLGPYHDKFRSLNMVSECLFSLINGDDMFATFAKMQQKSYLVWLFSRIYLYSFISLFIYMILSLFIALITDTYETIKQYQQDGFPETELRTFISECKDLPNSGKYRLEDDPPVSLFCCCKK
Method in brief: as §1

Chain of TRPML1 (Q9GZU1 whole entry L15A/L16A/L577A/L578A, form open): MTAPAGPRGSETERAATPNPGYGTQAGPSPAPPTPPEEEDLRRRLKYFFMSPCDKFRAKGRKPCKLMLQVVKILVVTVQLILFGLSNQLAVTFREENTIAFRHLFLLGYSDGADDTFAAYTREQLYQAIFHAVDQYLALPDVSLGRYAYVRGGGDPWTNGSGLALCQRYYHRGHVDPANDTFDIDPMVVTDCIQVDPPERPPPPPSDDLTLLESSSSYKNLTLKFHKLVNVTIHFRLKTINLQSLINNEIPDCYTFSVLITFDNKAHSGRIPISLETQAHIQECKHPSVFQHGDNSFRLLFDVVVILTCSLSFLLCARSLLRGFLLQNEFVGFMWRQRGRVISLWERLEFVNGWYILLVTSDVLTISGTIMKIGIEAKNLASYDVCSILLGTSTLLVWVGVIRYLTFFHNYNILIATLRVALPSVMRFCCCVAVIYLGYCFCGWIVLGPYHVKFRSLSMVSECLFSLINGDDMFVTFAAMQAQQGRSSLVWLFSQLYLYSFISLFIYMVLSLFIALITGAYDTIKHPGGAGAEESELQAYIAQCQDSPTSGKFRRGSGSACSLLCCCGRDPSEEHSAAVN

Compound	pEC50 (TRPML1)	pEC50 (TRPML2)	pEC50 (TRPML3)
C[C@@H]1COCCN1c1cn(-c2cccc(C#N)c2)c2ncnc(N3CCN(C(=O)OC(C)(C)C)C[C@@H]3C)c12 [Compound 369, tert-butyl (S)-4-(7-(3-cyanophenyl)-5-((R)-3-methylmorpholino)-7H-pyrrolo[2,3-d]pyrimidin-4-yl)-3-methylpiperazine-1-carboxylate]	6.30 to 7.00	5.70 to 6.30	6.30 to 7.00
Cc1c(F)cc(-n2cc(N3CCCC3)c3c(N4CCN(C(=O)OC(C)(C)C)C[C@@H]4C)ncnc32)cc1F [Compound 374, tert-butyl (S)-4-(7-(3,5-difluoro-4-methylphenyl)-5-(pyrrolidin-1-yl)-7H-pyrrolo[2,3-d]pyrimidin-4-yl)-3-methylpiperazine-1-carboxylate]	6.30 to 7.00	5.70 to 6.30	> 7.00
C[C@H]1COCCN1c1cn(-c2cccc(C#N)c2)c2ncnc(N3CCN(C(=O)OC(C)(C)C)C[C@@H]3C)c12 [Compound 379, tert-butyl (S)-4-(7-(3-cyanophenyl)-5-((S)-3-methylmorpholino)-7H-pyrrolo[2,3-d]pyrimidin-4-yl)-3-methylpiperazine-1-carboxylate]	5.70 to 6.30	< 5.70	5.70 to 6.30
C[C@H]1CN(C(=O)OC(C)(C)C)CCN1c1ncnc2c1c(N1CCN(C)CC1)cn2-c1cc(C#N)ccn1 [Compound 381, tert-butyl (S)-4-(7-(4-cyanopyridin-2-yl)-5-(4-methylpiperazin-1-yl)-7H-pyrrolo[2,3-d]pyrimidin-4-yl)-3-methylpiperazine-1-carboxylate]	< 5.70	< 5.70	< 5.70
C[C@H]1CN(C(=O)OC(C)(C)C)CCN1c1ncnc2c1c(C1CC1)cn2-c1ccc(F)c(OC(F)(F)F)c1 [Compound 387, tert-butyl (S)-4-(5-cyclopropyl-7-(4-fluoro-3-(trifluoromethoxy)phenyl)-7H-pyrrolo[2,3-d]pyrimidin-4-yl)-3-methylpiperazine-1-carboxylate]	5.70 to 6.30	6.30 to 7.00	> 7.00
C[C@@H]1CN(C(=O)OC(C)(C)C)CCN1c1ncnc2c1c(-c1ccccc1F)cn2-c1cc(C#N)ccn1 [Compound 389, tert-butyl (R)-4-(7-(4-cyanopyridin-2-yl)-5-(2-fluorophenyl)-7H-pyrrolo[2,3-d]pyrimidin-4-yl)-3-methylpiperazine-1-carboxylate]	5.70 to 6.30	6.30 to 7.00	> 7.00
C[C@H]1CN(C(=O)OC(C)(C)C)CCN1c1ncnc2c1c(N1CCCC1)cn2-c1cc(Cl)cc(C#N)c1 [Compound 399, tert-butyl (S)-4-(7-(3-chloro-5-cyanophenyl)-5-(pyrrolidin-1-yl)-7H-pyrrolo[2,3-d]pyrimidin-4-yl)-3-methylpiperazine-1-carboxylate]	6.30 to 7.00	5.70 to 6.30	> 7.00
C[C@H]1CN(C(=O)OC(C)(C)C)CCN1c1ncnc2c1c(CN1CCCC1)cn2-c1cccc(C#N)c1 [Compound 400, tert-butyl (S)-4-(7-(3-cyanophenyl)-5-(pyrrolidin-1-ylmethyl)-7H-pyrrolo[2,3-d]pyrimidin-4-yl)-3-methylpiperazine-1-carboxylate]	5.70 to 6.30	< 5.70	5.70 to 6.30
C[C@H]1CN(C(=O)OC(C)(C)C)CCN1c1ncnc2c1c(N1CCCC1)cn2C1CCCC(F)(F)C1 (stereo partly drawn) [Compound 401, tert-butyl (3S)-4-(7-(3,3-difluorocyclohexyl)-5-(pyrrolidin-1-yl)-7H-pyrrolo[2,3-d]pyrimidin-4-yl)-3-methylpiperazine-1-carboxylate]	6.30 to 7.00	< 5.70	> 7.00

Now from value to compound:

pEC50 (TRPML1)	pEC50 (TRPML2)	pEC50 (TRPML3)	Compound
> 7.00	6.30 to 7.00	> 7.00	C[C@H]1CN(C(=O)OC(C)(C)C)CCN1c1ncnc2c1c(N1CCCC1)cn2-c1cc(C#N)ccn1 [Compound 370, tert-butyl (S)-4-(7-(4-cyanopyridin-2-yl)-5-(pyrrolidin-1-yl)-7H-pyrrolo[2,3-d]pyrimidin-4-yl)-3-methylpiperazine-1-carboxylate]
> 7.00	5.70 to 6.30	> 7.00	C[C@H]1CN(C(=O)OCC(F)(F)F)CCN1c1ncnc2c1c(-c1ccccc1)cn2-c1cc(C#N)ccn1 [Compound 371, 2,2,2-trifluoroethyl (S)-4-(7-(4-cyanopyridin-2-yl)-5-phenyl-7H-pyrrolo[2,3-d]pyrimidin-4-yl)-3-methylpiperazine-1-carboxylate]
> 7.00	6.30 to 7.00	> 7.00	CCN(CC)c1cn(-c2cccc(Cl)c2)c2ncnc(N3CCN(C(=O)OC(C)(C)C)[C@H](C)C3)c12 [Compound 375, tert-butyl (R)-4-(7-(3-chlorophenyl)-5-(diethylamino)-7H-pyrrolo[2,3-d]pyrimidin-4-yl)-2-methylpiperazine-1-carboxylate]
> 7.00	6.30 to 7.00	> 7.00	C[C@H]1CN(C(=O)OC(C)(C)C)CCN1c1ncnc2c1c(C1CC1(F)F)cn2-c1cccc(C#N)c1 (stereo partly drawn) [Compound 376]
> 7.00	6.30 to 7.00	> 7.00	C[C@@H]1CN(c2ncnc3c2c(C2CC2)cn3-c2cc(C#N)ccn2)CCN1C(=O)OCC(F)(F)F [Compound 377, 2,2,2-trifluoroethyl (R)-4-(7-(4-cyanopyridin-2-yl)-5-cyclopropyl-7H-pyrrolo[2,3-d]pyrimidin-4-yl)-2-methylpiperazine-1-carboxylate]
> 7.00	> 7.00	> 7.00	C[C@@H]1CN(c2ncnc3c2c(-c2ccccc2F)cn3-c2cc(C#N)ccn2)CCN1C(=O)OCC(F)(F)F [Compound 378, 2,2,2-trifluoroethyl (R)-4-(7-(4-cyanopyridin-2-yl)-5-(2-fluorophenyl)-7H-pyrrolo[2,3-d]pyrimidin-4-yl)-2-methylpiperazine-1-carboxylate]
> 7.00	6.30 to 7.00	> 7.00	C[C@@H]1CN(c2ncnc3c2c(C2CC2)cn3-c2cc(C#N)ccn2)CCN1C(=O)OC(C)(C)C [Compound 384, tert-butyl (R)-4-(7-(4-cyanopyridin-2-yl)-5-cyclopropyl-7H-pyrrolo[2,3-d]pyrimidin-4-yl)-2-methylpiperazine-1-carboxylate]
> 7.00	> 7.00	> 7.00	C[C@@H]1CN(c2ncnc3c2c(N2CCC2)cn3-c2cc(C#N)ccn2)CCN1C(=O)OC(C)(C)C [Compound 388, tert-butyl (R)-4-(5-(azetidin-1-yl)-7-(4-cyanopyridin-2-yl)-7H-pyrrolo[2,3-d]pyrimidin-4-yl)-2-methylpiperazine-1-carboxylate]
> 7.00	> 7.00	> 7.00	C[C@@H]1CN(c2ncnc3c2c(-c2ccccc2F)cn3-c2cc(C#N)ccn2)[C@@H](C)CN1C(=O)OC(C)(C)C [Compound 390]
> 7.00	6.30 to 7.00	> 7.00	CC(C)(C)OC(=O)N1CCN(c2ncnc3c2c(-c2ccccc2F)cn3-c2cc(C#N)ccn2)CC1(C)C [Compound 391]
> 7.00	6.30 to 7.00	6.30 to 7.00	C[C@H]1CN(C(=O)OC(C)(C)C)CCN1c1ncnc2c1c(C1CC1)cn2C1CCC1 [Compound 398, tert-butyl (S)-4-(7-cyclobutyl-5-cyclopropyl-7H-pyrrolo[2,3-d]pyrimidin-4-yl)-3-methylpiperazine-1-carboxylate]
> 7.00	5.70 to 6.30	> 7.00	C[C@H]1CN(C(=O)OC(C)(C)C)CCN1c1ncnc2c1c(C1(C)CC1)cn2-c1cccc(C#N)c1 [Compound 402, tert-butyl (S)-4-(7-(3-cyanophenyl)-5-(1-methylcyclopropyl)-7H-pyrrolo[2,3-d]pyrimidin-4-yl)-3-methylpiperazine-1-carboxylate]
